Data: PubChem BioAssay AID256 (DTP/NCI, 2004)
Where “and” joins values, the source holds several entries; their conditions need not be identical. Equal entries are not always repeated. Inconclusive results and toxic doses are left out. Rule for the calls: active = survival T/C of 150% or more; inactive = T/C below 125% in these data.

System: CD2F1 mice, L1210 leukemia ip, survival T/C
Assay: NCI In Vivo Anticancer Drug Screen. Data for tumor model L1210 Leukemia (intraperitoneal) in CD2F1 (CDF1) mice
Details: endpoint: mean survival time, higher = longer survival
Outline: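 Read-out first: treated-group measurement over vehicle-control measurement, expressed as a ratio. Animals bore a transplanted tumor line and were dosed with compound or vehicle.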

[1] = dose: 100.0 mg/kg/injection, schedule: Q04DX003 (ip), vehicle: saline
[2] = dose: 200.0 mg/kg/injection, schedule: Q04DX003 (ip), vehicle: saline
[3] = dose: 400.0 mg/kg/injection, schedule: Q04DX003 (ip), vehicle: saline
[4] = dose: 100.0 mg/kg/injection, schedule: Q01DX009 (ip), vehicle: saline with Tween-80
[5] = dose: 100.0 mg/kg/injection, schedule: Q04DX003 (ip), vehicle: saline with Tween-80
[6] = dose: 200.0 mg/kg/injection, schedule: Q01DX009 (ip), vehicle: saline with Tween-80
[7] = dose: 200.0 mg/kg/injection, schedule: Q04DX003 (ip), vehicle: saline with Tween-80
[8] = dose: 400.0 mg/kg/injection, schedule: Q01DX009 (ip), vehicle: saline with Tween-80
[9] = dose: 400.0 mg/kg/injection, schedule: Q04DX003 (ip), vehicle: saline with Tween-80

Measured: T/C

Cc1c2ccc3ccccc3c2c[n+]2ccccc12
inactive: dose: 1.25 mg/kg/injection, schedule: Q01DX009 (ip), vehicle: Klucel (hydroxypropylcellulose) (HPC) 87 % of control and 102 % of control | dose: 2.5 mg/kg/injection, schedule: Q01DX009 (ip), vehicle: Klucel (hydroxypropylcellulose) (HPC) 98 % of control and 102 % of control | dose: 5.0 mg/kg/injection, schedule: Q01DX009 (ip), vehicle: Klucel (hydroxypropylcellulose) (HPC) 100 % of control and 105 % of control | dose: 10.0 mg/kg/injection, schedule: Q01DX009 (ip), vehicle: Klucel (hydroxypropylcellulose) (HPC) 104 % of control and 110 % of control | dose: 20.0 mg/kg/injection, schedule: Q01DX009 (ip), vehicle: Klucel (hydroxypropylcellulose) (HPC) 105 % of control

C1CN2CCOB(O1)OCC2
inactive: [1] 94 % of control | [2] 98 % of control | [3] 93 % of control

CCC(C)C(C)OC(=O)c1cc([N+](=O)[O-])cc([N+](=O)[O-])c1 (configuration not stated)
inactive: [4] 105 % of control | [5] 92 % of control | [6] 104 % of control | [7] 97 % of control | [8] 90 % of control | [9] 103 % of control

CCCCCCCCCCCCOP(OCC)OCCCCCCCCCCCC
inactive: dose: 25.0 mg/kg/injection, schedule: Q04DX002 (ip), vehicle: saline with Tween-80 104 % of control | dose: 50.0 mg/kg/injection, schedule: Q04DX002 (ip), vehicle: saline with Tween-80 101 % of control | dose: 100.0 mg/kg/injection, schedule: Q04DX002 (ip), vehicle: saline with Tween-80 96 % of control and 101 % of control

c1ccc(C2SCCCS2)cc1
inactive: dose: 100.0 mg/kg/injection, schedule: Q04DX003 (ip), vehicle: other 101 % of control | dose: 200.0 mg/kg/injection, schedule: Q04DX003 (ip), vehicle: other 97 % of control | dose: 400.0 mg/kg/injection, schedule: Q04DX003 (ip), vehicle: other 101 % of control

CC(=O)Oc1cc(C(C)(C)C)c(OC(C)=O)c(N=[N+]=[N-])c1C(C)(C)C
inactive: [5] 96 % of control | [7] 101 % of control | [9] 96 % of control

O=C1c2ccccc2C(=O)c2c1ccc(O)c2O
inactive: [4] 97 % of control | [5] 102 % of control | [6] 97 % of control | [7] 100 % of control | [8] 90 % of control | [9] 100 % of control

Nc1ccc(S(=O)(=O)N(CCO)CCO)cc1[N+](=O)[O-]
inactive: [5] 96 % of control | [7] 98 % of control | [9] 95 % of control

Cc1ccc(C#N)c2c1CCC2
inactive: dose: 100.0 mg/kg/injection, schedule: Q01DX001 (ip), vehicle: Klucel (hydroxypropylcellulose) (HPC) 103 % of control | dose: 200.0 mg/kg/injection, schedule: Q01DX001 (ip), vehicle: Klucel (hydroxypropylcellulose) (HPC) 95 % of control | dose: 400.0 mg/kg/injection, schedule: Q01DX001 (ip), vehicle: Klucel (hydroxypropylcellulose) (HPC) 103 % of control

NC1=C(N)C(=O)NC(N)N1 (configuration not stated)
inactive: dose: 100.0 mg/kg/injection, schedule: Q04DX002 (ip), vehicle: saline 102 % of control | dose: 200.0 mg/kg/injection, schedule: Q04DX002 (ip), vehicle: saline 102 % of control | dose: 400.0 mg/kg/injection, schedule: Q04DX002 (ip), vehicle: saline 100 % of control

CC(=O)N1C2=CCCC3CCCCC23c2ccccc21 (configuration not stated)
inactive: [4] 103 % of control | [5] 96 % of control | [6] 101 % of control | [7] 92 % of control | [8] 98 % of control | [9] 101 % of control

O=c1c2ccccc2sc2ccc3ccccc3c12
inactive: dose: 100.0 mg/kg/injection, schedule: Q01DX001 (ip), vehicle: saline with Tween-80 106 % of control | dose: 200.0 mg/kg/injection, schedule: Q01DX001 (ip), vehicle: saline with Tween-80 101 % of control | dose: 400.0 mg/kg/injection, schedule: Q01DX001 (ip), vehicle: saline with Tween-80 101 % of control

Cc1ccccc1Sc1cc2ccccc2c2ccccc12
inactive: [1] 97 % of control | [2] 100 % of control | [3] 100 % of control

CC(=O)CC(OC(C)=O)(C(F)(F)F)C(F)(F)F
inactive: dose: 25.0 mg/kg/injection, schedule: Q04DX002 (ip), vehicle: saline 98 % of control | dose: 50.0 mg/kg/injection, schedule: Q04DX002 (ip), vehicle: saline 102 % of control | dose: 100.0 mg/kg/injection, schedule: Q04DX003 (ip), vehicle: Klucel (hydroxypropylcellulose) (HPC) 90 % of control

CSc1ncnc2c1c(C#N)cn2C1OC(CO)C(O)C1O (configuration not stated)
inactive: dose: 32.0 mg/kg/injection, schedule: Q01DX009 (ip), vehicle: saline 124 % of control | dose: 53.0 mg/kg/injection, schedule: Q01DX009 (ip), vehicle: saline 87 % of control

O=c1scc(-c2ccc(C(F)(F)F)cc2)s1
inactive: dose: 12.5 mg/kg/injection, schedule: Q01DX009 (ip), vehicle: Klucel (hydroxypropylcellulose) (HPC) 100 % of control | dose: 25.0 mg/kg/injection, schedule: Q01DX009 (ip), vehicle: Klucel (hydroxypropylcellulose) (HPC) 91 % of control
